# From patent US20250003959A1, “CELL ANALYSIS METHODS, COMPOSITIONS, AND USES” (Institute for Systems Biology, priority 2021, published 2025)
# Columns and labels:
# U87VIII cells [1] = tested on: U87VIII cells
# Procedure: (§1) A 96-well plate was seeded with U87 cells (10,000/well), and the cells were allowed to grow overnight. Then the FA-N3 solution was added (100 μL per well, various concentrations) to the cells and incubated for 24 hours. After the incubation, the cell media was removed, and a resazurin solution (10 g/mL, in cell media) was added to the plate and incubated for 2 hours. The fluorescence was read by a plate reader (Biotek, 540 nm excitation/590 nm emission).
# U87VIII single cells = experiment: Single-cell barcode chip (SCBC) FA-N3 uptake measurement; assay type: cell-based, human
# Procedure: For SCBC measurements, the as-prepared single cells were resuspended in warm FBS-free media supplemented with 10 mM FA-N3 at 2 M cells/mL. After being incubated at 37° C. for 30 min and washed with FBS-free media 3 times, the collected cell pellet was resuspended in serum-free, biotin-free media. The concentration of the as-prepared single-cell suspension was 2 M cells/mL.
# The SCBCs were fabricated according to well-established procedures (Xue et al (2015) J Am Chem Soc 137 (12): 4066-4069). DNA-encoded antibody library (DEAL) was grafted onto the surface through DNA hybridization to enable capture antibody arrays. The FA surface probe was also incorporated onto the surface barcode through the same procedure.
# The SCBC devices were operated following previously established protocols (Xue et al (2015) J Am Chem Soc 137 (12): 4066-4069)). Briefly, FA-N3 detection was achieved by a surface-based competitive FRET assay, and protein detection was carried out by a sandwich immunofluorescence assay. The cells were loaded in the SCBC with FA-N3 first. Then each cell was isolated and lysed on each chamber. Upon cell lysing, FA-N3 and other analytes were released from the cell and captured on the surface. Subsequently, the detection cocktail containing BHQ2-N3 and antibodies were added to the chamber, and the fluorescence readout was recorded.
# The dendrimer-ssDNA conjugate can be mixed with a cocktail of antibody-ssDNA conjugates to enable multiplex quantitation. As a proof of concept, we quantified the azidopentanoic acid uptake, critical signaling protein levels, and cell proliferation marker (Ki67) in U87VIII single cells. […] We further investigated if the FA-N3 uptake was dictated by the cell volume.
# U87VIII cells [2] = experiment: FA-N3 uptake experiment at the bulk level, dendrimer/BHQ2-N3 surface detection; assay type: cell-based, human
# Procedure: The 3rd or 4th generation dendrimer was immobilized on the glass slide surface (described above). To generate a working curve of FA-N3, 45 μL of FA-N3 (various concentrations in 1×PBST) was added to each well. The slide was incubated at 37° C. for 2 hours, allowing FA-N3 to react with the DBCO groups on the dendrimer. The FA-N3 solution was then removed, and each well was washed with 1×PBST three times. 45 μL of BHQ2-N3 solution (25 μM in 1×PBST) was added to each well, and the slide/PDMS device was incubated at 37° C. for 1 hour, allowing BHQ2-N3 to react with unoccupied DBCO sites. After removing the BHQ2-N3 solution, and the device was washed with 1×PBST three times. The PDMS slab was then removed, and the slide was washed with 1×PBS, 50% 1×PBS/water, and water. The slide was then air-dried, and the fluorescence intensities were obtained using a Genepix microarray scanner. Experiments were run in quadruplets to get the error bar.
# The U87 cells were collected via centrifugation at 500 g for 5 min. The media was removed, and the cells were resuspended in FBS-free DMEM, resulting in a 4 M cells/mL suspension. 250 μL of the cell suspension was dispensed into Eppendorf tubes, and mixed with 250 μL of the FA-N3 solution (various concentrations, in FBS free DMEM). After 30 min incubation in the cell incubator, the cells were centrifuged at 500 g for 5 min and the resulting pellet was washed 3 times to remove any excess FA-N3. Then, 100 μL cell lysis buffer was added to each tube, and kept on ice for 15 min. The tubes were then sonicated and vortexed for 5 min. Finally, the tubes were centrifuged at maximum speed for 10 min. The supernatant was collected and subjected to surface-based FA-N3 detection.
# Because of their hydrophobic tails, fatty acids may insert into the cell membrane. This partition is not an active transportation process and may confound the analysis. On the other hand, it was expected that the inserted probe molecules would remain in the membrane fragments upon cell lysis and not be detected by the assay. To assess this potential interference, we incubated the cells with the FA-N3 probe at 4° C. and used our platform to quantify the FA-N3 in the cells. At such a low temperature, the cells would stop the active transportation of the probe, and any observed signal would originate from the nonspecific insertion into the cell membrane. […] To rule out the possibility that the low-temperature treatment dampened the rate of the nonspecific insertion, we performed another experiment where we fixed the cells and then incubated them with the FA-N3 probe at 37° C. Again, the resulted signal was negligible (FIG. 3G).
# U87VIII cells [3] = experiment: FA-N3 tolerance experiment (resazurin viability); conditions: FIG. 3E
# Procedure: as §1
substance,measurement,setting,value
azidopentanoic acid [FA-N3],tolerance of the probe by the cells,U87VIII cells [1],well-tolerated
same,intracellular FA-N3 concentration,U87VIII single cells,high μM to low mM
same,fatty acid concentrations in the chambers,U87VIII single cells; calculated from the standard curve,high nM to low μM
same,FA-N3 amount taken up by each cell,U87VIII single cells; chamber volume 2 nL,low fmol-level
same,uptake signal after incubation at 4° C.,"U87VIII cells [2]; U87VIII cells incubated with the probe at 4° C., vs control",indistinguishable from the control
same,FA-N3 concentration above which uptake signal leveled off,"U87VIII cells [2]; U87VIII cells, bulk level",above 10 mM
same,cellular uptake of FA-N3 probe,"U87VIII cells [2]; U87VIII cells, bulk level, 30 min incubation, varying FA-N3 concentrations",concentration-dependent manner
same,uptake signal in fixed cells,U87VIII cells [2]; fixed U87VIII cells incubated with the probe at 37° C.,negligible
same,concentration well tolerated by cells,U87VIII cells [3],up to 20 mM
